Results taken from patent US8076487B2, “Pyridone derivative and herbicide” (Kumiai Chemical Industry Co., Ltd., priority 2006, dated 2011).

Experiments:
Assay type in all cases: in vivo
[1] = tested on: green foxtail (Setaria viridis (L.) P. Beauv.); test: Test Example 3: herbicidal effect by application to upland field (foliage treatment); conditions: 14th day after application; for herbicidal effect, Green Foxtail: foliage treatment, 1,000 g active ingredient per 1 hectare, greenhouse
Summary of the method: (§1)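 Sow in field soil; grow 2 weeks in greenhouse; spray foliage from above with wettable-powder dilution (1,000 g AI/ha, 1,000 L/ha); return to greenhouse; score effect at day 14 against a standard.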

[2] = tested on: velvetleaf (Abutilon theophrasti medicus); test: as above; conditions: 14th day after application; for herbicidal effect, Velvetleaf: foliage treatment, 1,000 g active ingredient per 1 hectare, greenhouse
Summary of the method: as §1

[3] = tested on: barnyardgrass (Echinochloa crus-galli (L.) P. Beauv. var. crus-galli); test: as above; conditions: 14th day after application; for herbicidal effect, Barnyardgrass: foliage treatment, 1,000 g active ingredient per 1 hectare, greenhouse
Summary of the method: as §1

[4] = tested on: slender amaranth (Amaranthus viridis L.); test: as above; conditions: 14th day after application; for herbicidal effect, Slender Amaranth: foliage treatment, 1,000 g active ingredient per 1 hectare, greenhouse
Summary of the method: as §1

[5] = tested on: green foxtail (Setaria viridis (L.) P. Beauv.); test: Test Example 2: herbicidal effect by soil application to upland field; conditions: soil surface spray, upland field soil, 1,000 g active ingredient per hectare, 21st day after application
Summary of the method: (§2)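 After sowing and covering, the soil received an even aqueous spray of wettable powder at a rate of 1,000 g active ingredient/ha (1,000 L/ha). Ratings of herbicidal effect followed a standard scale 21 days post-treatment, with plants held in a greenhouse.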

[6] = tested on: velvetleaf (Abutilon theophrasti medicus); test: as above; conditions: soil surface spray, upland field soil, 1,000 g active ingredient per hectare, 21st day after application
Summary of the method: as §2

[7] = tested on: barnyardgrass (Echinochloa crus-galli (L.) P. Beauv. var. crus-galli); test: as above; conditions: soil surface spray, upland field soil, 1,000 g active ingredient per hectare, 21st day after application
Summary of the method: as §2

[8] = tested on: slender amaranth (Amaranthus viridis L.); test: as above; conditions: soil surface spray, upland field soil, 1,000 g active ingredient per hectare, 21st day after application
Summary of the method: as §2

[9] = tested on: Japanese bulrush (Scirpus juncoides Roxb.); test: Test Example 1: herbicidal effect by soil application to paddy field; conditions: paddy field soil application; active ingredient 1,000 g per 1 hectare; wettable powder added dropwise to water surface the day after sowing; examined on the 21st day after application
Summary of the method: (§3)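 Plants were sown in flooded (3 cm) paddy soil and evaluated for herbicidal effect 21 days after soil application in a greenhouse.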

[10] = tested on: heartshape false pickerelweed (Monochoria vaginalis (Burm.f.) C.Presl); test: as above; conditions: paddy field soil application; active ingredient 1,000 g per 1 hectare; wettable powder added dropwise to water surface the day after sowing; examined on the 21st day after application
Summary of the method: as §3

[11] = tested on: early watergrass (Echinochloa oryzicola Vasing); test: as above; conditions: paddy field soil application; active ingredient 1,000 g per 1 hectare; wettable powder added dropwise to water surface the day after sowing; examined on the 21st day after application
Summary of the method: as §3

[12] = foliage treatment, plants grown two weeks, 1,000 g active ingredient per hectare

SMILES	herbicidal effect, Green Foxtail [1]	herbicidal effect, Velvetleaf [2]	herbicidal effect, Barnyardgrass [3]	herbicidal effect, Slender Amaranth [4]	herbicidal effect (index), Green Foxtail [5]	herbicidal effect (index), Velvetleaf [6]	herbicidal effect (index), Barnyardgrass [7]	herbicidal effect (index), Slender Amaranth [8]	herbicidal effect, Scirpus juncoides Roxb. [9]	herbicidal effect, Monochoria vaginalis (Burm. f.) C. Presl [10]	herbicidal effect, Echinochloa oryzicola Vasing [11]	herbicidal effect (index), Green Foxtail [1, 12]	herbicidal effect (index), Velvetleaf [2, 12]	herbicidal effect (index), Barnyardgrass [3, 12]	herbicidal effect (index), Slender Amaranth [4, 12]
O=C(C1=C(O)C2CCC(C2)C1=O)c1ccc(C(F)(F)F)n(CC2CCCO2)c1=O (stereo not drawn) [III-38]	4 (70 to less than 90% of herbicidal effect and crop phytotoxicity)	5 (90% or more of herbicidal effect and crop phytotoxicity)	5 (90% or more of herbicidal effect and crop phytotoxicity)	5 (90% or more of herbicidal effect and crop phytotoxicity)	3 (50 to less than 70% of herbicidal effect and crop phytotoxicity)	5 (90% or more of herbicidal effect and crop phytotoxicity)	5 (90% or more of herbicidal effect and crop phytotoxicity)	5 (90% or more of herbicidal effect and crop phytotoxicity)	5 (90% or more of herbicidal effect and crop phytotoxicity)	5 (90% or more of herbicidal effect and crop phytotoxicity)	5 (90% or more of herbicidal effect and crop phytotoxicity)	–	–	–	–
Cn1ncc(C(=O)c2ccc(C(F)(F)F)n(CC3OCCO3)c2=O)c1O [IV-119]	4 (70 to less than 90% of herbicidal effect and crop phytotoxicity)	4 (70 to less than 90% of herbicidal effect and crop phytotoxicity)	5 (90% or more of herbicidal effect and crop phytotoxicity)	5 (90% or more of herbicidal effect and crop phytotoxicity)	5 (90% or more of herbicidal effect and crop phytotoxicity)	5 (90% or more of herbicidal effect and crop phytotoxicity)	5 (90% or more of herbicidal effect and crop phytotoxicity)	5 (90% or more of herbicidal effect and crop phytotoxicity)	5 (90% or more of herbicidal effect and crop phytotoxicity)	5 (90% or more of herbicidal effect and crop phytotoxicity)	5 (90% or more of herbicidal effect and crop phytotoxicity)	–	–	–	–
CCCS(=O)(=O)Oc1c(C(=O)c2ccc(C(F)(F)F)n(-c3ccc4c(c3)OCO4)c2=O)cnn1C [IV-98]	4 (70 to less than 90% of herbicidal effect and crop phytotoxicity)	5 (90% or more of herbicidal effect and crop phytotoxicity)	5 (90% or more of herbicidal effect and crop phytotoxicity)	5 (90% or more of herbicidal effect and crop phytotoxicity)	5 (90% or more of herbicidal effect and crop phytotoxicity)	5 (90% or more of herbicidal effect and crop phytotoxicity)	3 (50 to less than 70% of herbicidal effect and crop phytotoxicity)	5 (90% or more of herbicidal effect and crop phytotoxicity)	5 (90% or more of herbicidal effect and crop phytotoxicity)	5 (90% or more of herbicidal effect and crop phytotoxicity)	5 (90% or more of herbicidal effect and crop phytotoxicity)	–	–	–	–
CCS(=O)(=O)Cn1c(C(F)(F)F)ccc(C(=O)C2=C(O)CCCC2=O)c1=O [I-49]	–	–	–	–	4 (70 to less than 90% of herbicidal effect and crop phytotoxicity)	5 (90% or more of herbicidal effect and crop phytotoxicity)	5 (90% or more of herbicidal effect and crop phytotoxicity)	5 (90% or more of herbicidal effect and crop phytotoxicity)	5 (90% or more of herbicidal effect and crop phytotoxicity)	5 (90% or more of herbicidal effect and crop phytotoxicity)	5 (90% or more of herbicidal effect and crop phytotoxicity)	5 (90% or more of herbicidal effect and crop phytotoxicity)	5 (90% or more of herbicidal effect and crop phytotoxicity)	5 (90% or more of herbicidal effect and crop phytotoxicity)	5 (90% or more of herbicidal effect and crop phytotoxicity)
CSCCn1c(C(F)(F)F)ccc(C(=O)C2=C(O)C3CCC(C3)C2=O)c1=O (stereo not drawn) [III-28]	5 (90% or more of herbicidal effect and crop phytotoxicity)	5 (90% or more of herbicidal effect and crop phytotoxicity)	5 (90% or more of herbicidal effect and crop phytotoxicity)	5 (90% or more of herbicidal effect and crop phytotoxicity)	5 (90% or more of herbicidal effect and crop phytotoxicity)	5 (90% or more of herbicidal effect and crop phytotoxicity)	5 (90% or more of herbicidal effect and crop phytotoxicity)	5 (90% or more of herbicidal effect and crop phytotoxicity)	5 (90% or more of herbicidal effect and crop phytotoxicity)	5 (90% or more of herbicidal effect and crop phytotoxicity)	5 (90% or more of herbicidal effect and crop phytotoxicity)	–	–	–	–
Cn1c(C(F)(F)F)ccc(C(=O)C2=C(O)C3CCC(C3)C2=O)c1=O (stereo not drawn) [III-1]	5 (90% or more of herbicidal effect and crop phytotoxicity)	5 (90% or more of herbicidal effect and crop phytotoxicity)	4 (70 to less than 90% of herbicidal effect and crop phytotoxicity)	5 (90% or more of herbicidal effect and crop phytotoxicity)	5 (90% or more of herbicidal effect and crop phytotoxicity)	5 (90% or more of herbicidal effect and crop phytotoxicity)	5 (90% or more of herbicidal effect and crop phytotoxicity)	5 (90% or more of herbicidal effect and crop phytotoxicity)	5 (90% or more of herbicidal effect and crop phytotoxicity)	5 (90% or more of herbicidal effect and crop phytotoxicity)	5 (90% or more of herbicidal effect and crop phytotoxicity)	–	–	–	–
